Measurements reported in patent US20230174468A1, “SULFATED PILLARARENES, METHODS OF MAKING SAME, AND USES THEREOF” (priority 2007, published 2023).
Like-named read-outs stand apart in the source and are kept apart here.

Tests used:
[1] = M2.cis complex, previous work; cited from earlier work
[2] = TA1535, +S9, positive control compounds
[3] = TA1535, −S9, positive control compounds
[4] = TA100, +S9, positive control compounds
[5] = TA100, −S9, positive control compounds
[6] = TA1537, +S9, positive control compounds
[7] = TA1537, −S9, positive control compounds
[8] = TA98, +S9, positive control compounds
[9] = TA98, −S9, positive control compounds

Structure (SMILES)	number of positive wells (TA1535; [2])	significance of positive wells vs control (Fisher's exact test) (TA1535; [2])	number of positive wells (TA1535; [3])	significance of positive wells vs control (Fisher's exact test) (TA1535; [3])	number of positive wells (TA100; [4])	significance of positive wells vs control (Fisher's exact test) (TA100; [4])	number of positive wells (TA100; [5])	significance of positive wells vs control (Fisher's exact test) (TA100; [5])	number of positive wells (TA1537; [6])	significance of positive wells vs control (Fisher's exact test) (TA1537; [6])	number of positive wells (TA1537; [7])	significance of positive wells vs control (Fisher's exact test) (TA1537; [7])	number of positive wells (TA98; [8])	significance of positive wells vs control (Fisher's exact test) (TA98; [8])	number of positive wells (TA98; [9])	significance of positive wells vs control (Fisher's exact test) (TA98; [9])	Ka [1]
CN(N=O)C(=O)N[C@H]1C(O)O[C@H](CO)[C@@H](O)[C@@H]1O (mixture of isomers) [Streptozotocin]	24/48	+++ (p<0.001 (very strong positive, +++))	16/48	+++ (p<0.001 (very strong positive, +++))	7/48	− (p >0.05 (negative, −))	5/48	+ (0.01<p<0.05 (weak positive, +))	1/48	− (p >0.05 (negative, −))	1/48	− (p >0.05 (negative, −))	0/48	− (p >0.05 (negative, −))	0/48	− (p >0.05 (negative, −))	
O=c1c(O)c(-c2ccc(O)c(O)c2)oc2cc(O)cc(O)c12 [Quercetin]	0/48	− (p >0.05 (negative, −))	1/48	− (p >0.05 (negative, −))	5/48	− (p >0.05 (negative, −))	0/48	− (p >0.05 (negative, −))	5/48	+ (0.01<p<0.05 (weak positive, +))	1/48	− (p >0.05 (negative, −))	10/48	+++ (p<0.001 (very strong positive, +++))	5/48	+ (0.01<p<0.05 (weak positive, +))	
C[C@]12N3Cc4c(c(OCCCS(=O)(=O)[O-])c5ccccc5c4OCCCS(=O)(=O)[O-])CN1C(=O)N1CN4C(=O)N5CN6C(=O)N7CN8C(=O)N9Cc%10c(c(OCCCS(=O)(=O)[O-])c%11ccccc%11c%10OCCCS(=O)(=O)[O-])CN%10C(=O)N(CN%11C(=O)N(CN%12C(=O)N(CN(C3=O)[C@]12C)[C@@H]4[C@H]%125)[C@@H]6[C@H]%117)[C@]8(C)[C@@]9%10C.[Na+].[Na+].[Na+].[Na+] [Host M2]																	4.8e+06 M⁻¹
Nc1c2ccccc2nc2ccccc12 [Host 9-AA, 9-aminoacridine]	0/48	− (p >0.05 (negative, −))	0/48	− (p >0.05 (negative, −))	2/48	− (p >0.05 (negative, −))	0/48	− (p >0.05 (negative, −))	24/48	+++ (p<0.001 (very strong positive, +++))	24/48	+++ (p<0.001 (very strong positive, +++))	0/48	− (p >0.05 (negative, −))	0/48	− (p >0.05 (negative, −))	
Nc1ccc2cc3ccccc3cc2c1 [Host 2-AA, 2-aminoanthracene]	9/48	++ (0.001<p <0.01 (strong positive, ++))	0/48	− (p >0.05 (negative, −))	11/48	+ (0.01<p<0.05 (weak positive, +))	0/48	− (p >0.05 (negative, −))	6/48	+ (0.01<p<0.05 (weak positive, +))	0/48	− (p >0.05 (negative, −))	13/48	+++ (p<0.001 (very strong positive, +++))	0/48	− (p >0.05 (negative, −))	
